Where “and” joins values, the source holds several entries; their conditions need not be identical. Equal values may be shown once.
Tests used:
[1] = target: PBP B (Mycobacteroides abscessus, UniProt B1MP31); assay: Mass spectrometric analysis of acyl-enzyme adducts; format: binding; conditions: PBP B (65,863); 1:10 molar ratio, 2 h; accuracy ±5 Da
Experimental: Truncated sequences of BlaMab (Δ1–30 blaMab), LDT1–5, DDC, PBP B, PonA2, and PBP-lipo (Δ1–41) were synthesized by Celtek Biosciences (Franklin, TN) and cloned into the pET28(a)+ vector. Purification of LDTs and PBPs was carried out as previously described ([15], [16], [20]). Briefly, clones were transformed into Escherichia coli BL21 (DE3), and protein expression was induced with 0.25 mM isopropyl β-d-1-thiogalactopyranoside. Cell pellets were resuspended in buffer containing 50 mM Tris (pH 8.0), 400 mM sodium chloride, and 1 mM Tris(2-carboxyethyl)phosphine hydrochloride and lysed by sonication. After centrifugation, the supernatant was purified using a His Prep FF column and eluted with 500 mM imidazole.
The purified proteins were incubated at room temperature with JDB/NA-1-157 and JDB/NA-1-208 at a molar ratio of 1:10 for 2 h. A quadrupole time-of-flight mass spectrometer (Waters Synapt-G2-Si) with electrospray ionization and a Waters Acquity H-Class UPLC system were used to analyze the samples. The liquid chromatography conditions were as follows: a BEH C18 column (1.7 µm, 2.1 × 50 mm) and a mobile phase consisting of 0.1% formic acid in water and 0.1% formic acid in acetonitrile, with a gradient elution from 10% to 90% acetonitrile over 11 min at a flow rate of 0.5 mL/min. […]

[2] = target: T1, PBP-lipo (Mycobacteroides abscessus, UniProt B1MDC3); assay: Apparent inhibition constant (nitrocefin, Dixon plot); format: biochemical; conditions: Ki,app
T1 construct: made in house; host or cells: Escherichia coli BL21 (DE3)
T1 sequence (B1MDC3 entry or part of it): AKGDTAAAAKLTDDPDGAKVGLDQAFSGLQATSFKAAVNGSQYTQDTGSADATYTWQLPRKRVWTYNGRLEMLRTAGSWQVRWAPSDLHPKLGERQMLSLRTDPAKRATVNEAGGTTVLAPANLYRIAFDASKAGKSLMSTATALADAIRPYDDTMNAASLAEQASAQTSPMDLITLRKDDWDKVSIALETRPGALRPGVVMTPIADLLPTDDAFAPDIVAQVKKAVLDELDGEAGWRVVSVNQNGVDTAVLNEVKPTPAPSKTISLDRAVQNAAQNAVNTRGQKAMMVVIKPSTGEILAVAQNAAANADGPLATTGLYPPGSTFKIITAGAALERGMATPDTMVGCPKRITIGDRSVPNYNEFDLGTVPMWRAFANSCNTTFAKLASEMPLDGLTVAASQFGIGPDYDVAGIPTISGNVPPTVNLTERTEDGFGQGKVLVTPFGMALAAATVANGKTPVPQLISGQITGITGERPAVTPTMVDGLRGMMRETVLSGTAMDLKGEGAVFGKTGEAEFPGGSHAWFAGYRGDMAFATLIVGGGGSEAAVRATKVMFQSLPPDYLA
Experimental: Steady-state kinetic studies with JDB/NA-1-157 and JDB/NA-1-208 were performed using purified LDTs and PBPs, including LDT1–5, PBP-B, PBP-lipo, and D,D-carboxypeptidase. The assays were conducted on a BioTek Synergy2 multimode reader equipped with Gen5 software. To determine the Michaelis constant (Km^NCF) for each LDT and PBP, a wide range of NCF concentrations was tested, while the enzyme concentrations were fixed. Absorbance changes at 482 nm were monitored over 10 min. Steady-state kinetic parameters (Vmax and Km) were derived by fitting the experimental data to the Henri–Michaelis–Menten equation using nonlinear least-squares regression in GraphPad Prism version 9. The reaction velocity (v) at a given substrate concentration ([S]) was calculated using equation 2: […]
The apparent inhibition constants (Ki,app) for JDB/NA-1-157 and JDB/NA-1-208 were determined under the following conditions: an NCF concentration of 5 × Km, fixed concentrations of LDT or PBP enzymes, and varying concentrations of JDB/NA-1-157 and JDB/NA-1-208. Absorbance changes at 482 nm were monitored over a 30 min period for each inhibitor concentration. The data were linearized using a Dixon plot, which involves plotting the reciprocal of the absorbance change (1/ΔA) against the concentrations of JDB/NA-1-157 or JDB/NA-1-208. Apparent Ki,app values were derived from the intersection points on the Dixon plot and were subsequently corrected for substrate concentration and enzyme affinity using equation 3:
(3) Ki,app=observed Ki,app/1+[NCF]/Km NCF.

[3] = system: 18 clinical isolates; assay: MIC distribution against 18 clinical isolates (and Mab ATCC 19977); format: cell-based, Mycobacterium abscessus; conditions: single agent, 18 clinical isolates (Fig. 3 also Mab ATCC 19977)
From the text: We investigated the effect of C5α-substituted carbapenems (C5α-methyl, JDB/NA-1-157 or 10a and C5α-ethyl, JDB/NA-1-208, or 10b) against Mab strain ATCC 19977, which produces BlaMab, alongside 18 clinical isolates obtained from de-identified patients. These clinical isolates were sourced from National Jewish Health, University Hospitals Cleveland Medical Center, and Cleveland MetroHealth. The strains were utilized for MIC assays and static drug concentration time-kill (SCTK) experiments. Two C5α-substituted carbapenems were designed and synthesized in the Buynak lab at SMU ([31]). The active forms of cefuroxime salts, imipenem, amoxicillin, sulbactam, and avibactam were purchased from AchemBlock, while durlobactam was provided by Innoviva Specialty Therapeutics. All β-lactams and BLIs were prepared in sterile distilled water and subsequently filter-sterilized using a 0.22 µm polyethersulfone syringe filter.
MICs were determined in duplicate following Clinical Laboratory Standards Institute ([52]) guidelines using Middlebrook 7H9 broth supplemented with 10% (vol/vol) oleic acid-albumin-dextrose-catalase (OADC) and 0.05% (vol/vol) Tween 80, with an inoculum of 5 × 10⁵ CFU/mL. […]

[4] = target: BlaMab (Mycobacteroides abscessus, UniProt B1MCI3); assay: Steady-state kinetics of hydrolysis by BlaMab; format: biochemical, Mycobacterium abscessus; conditions: best-fit value (95% confidence interval); MES buffer pH 6.4, room temperature
Sequence of BlaMab (B1MCI3 entry or part of it): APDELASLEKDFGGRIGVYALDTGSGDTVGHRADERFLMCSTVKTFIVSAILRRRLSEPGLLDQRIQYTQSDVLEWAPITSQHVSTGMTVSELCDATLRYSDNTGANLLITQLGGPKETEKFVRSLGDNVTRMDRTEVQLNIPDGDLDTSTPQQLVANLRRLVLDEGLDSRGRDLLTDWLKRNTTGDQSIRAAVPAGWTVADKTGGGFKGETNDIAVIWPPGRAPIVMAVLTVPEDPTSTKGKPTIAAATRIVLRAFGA

Sequence of PBP B (B1MP31 entry or part of it): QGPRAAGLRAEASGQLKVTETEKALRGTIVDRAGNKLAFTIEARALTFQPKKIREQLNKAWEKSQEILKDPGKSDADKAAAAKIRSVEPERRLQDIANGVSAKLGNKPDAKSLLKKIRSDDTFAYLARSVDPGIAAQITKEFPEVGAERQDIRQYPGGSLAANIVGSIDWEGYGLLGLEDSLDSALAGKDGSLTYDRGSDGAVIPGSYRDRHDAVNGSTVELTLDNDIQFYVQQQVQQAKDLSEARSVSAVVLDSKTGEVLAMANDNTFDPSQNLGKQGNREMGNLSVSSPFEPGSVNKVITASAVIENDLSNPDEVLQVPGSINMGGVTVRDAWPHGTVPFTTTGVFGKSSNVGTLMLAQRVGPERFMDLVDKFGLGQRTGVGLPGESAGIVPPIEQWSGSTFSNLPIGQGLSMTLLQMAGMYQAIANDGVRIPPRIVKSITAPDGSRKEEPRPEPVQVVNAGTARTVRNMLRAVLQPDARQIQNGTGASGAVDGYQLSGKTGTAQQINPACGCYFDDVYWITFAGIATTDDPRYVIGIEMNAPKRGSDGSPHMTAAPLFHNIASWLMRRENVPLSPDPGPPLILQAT

Compound | Mass of protein after incubation (mass shift) [1] | Ki [2] | MIC range [3] | kcat [4]
CC[C@]12CC(S[C@@H]3CN[C@H](C(=O)N(C)C)C3)=C(C(=O)O)N1C(=O)[C@@H]2[C@@H](C)O [JDB/NA-1-208] | 66,262 (+397) Da |  |  | 
C[C@@H](O)[C@H]1C(=O)N2C(C(=O)O)=C(S[C@@H]3CN[C@H](C(=O)N(C)C)C3)C[C@]12C [JDB/NA-1-157] |  | 258 nM | 0.125 to 8.0 µg/mL and 0.125 to 8 µg/mL | 0.03 s⁻¹
